Data as given in patent US20260224738A1, “MICELLE NANOPARTICLES COMPRISING BIOPOLYMER-HEMIN COMPLEX, AND USE THEREOF” (GWANGJU INSTITUTE OF SCIENCE AND TECHNOLOGY, priority 2023, published 2026).

How the values were obtained:
[1] = system: HK-2 cells; test: Cell viability against ROS (200 μM hydrogen peroxide), Alamar Blue; format: cell-based, human
Protocol: HK-2 cells were treated with 200 μM hydrogen peroxide and various concentrations of the biopolymer-hemin complexes. After 24 hours of incubation, cell viability was evaluated using the Alamar Blue assay.
It was confirmed that the biopolymer-hemin complex removes ROS such as hydrogen peroxide and protects cells from oxidative stress (FIG. 4D). The ROS protective effect of the biopolymer-hemin complex was assayed in HK-2 cells with hydrogen peroxide. Various concentrations of hemin and biopolymer-hemin complexes with the same amount of hemin were added to cells treated with hydrogen peroxide (200 μM). The survival rate of cells was improved by increasing the concentration of the biopolymer-hemin complex or hemin.

[2] = system: AKI mouse model established using glycerol; test: Histological analysis of kidneys of AKI mice (H&E, DHE, KIM-1, MAC387); format: in vivo, ICR mice
Protocol: (§1) All animal experiments were performed in accordance with the Gwangju Institute of Science and Technology Animal Care Committee guidelines (GIST-2021-095). Six-week-old ICR mice (30 g) were used, with free access to food and water. To establish an acute kidney injury (AKI) model, water was restricted for 18 hours. Next, 50% glycerol solution (8 mL/kg) was injected intramuscularly into both hind limbs of each mouse.
(§2) After establishing the AKI model, 10 mg/kg of hemin and biopolymer-hemin complex was injected intravenously. Twenty-four hours later, blood was collected for serum urea nitrogen (BUN) and creatinine analysis. Kidneys and other major organs (heart, liver, spleen, and lungs) were also collected for further histological analysis. 1-10. Histological analysis
The kidneys of each group were fixed with 4% formaldehyde, embedded in paraffin, and cut into 5 μm thick sections. H&E staining and TUNEL analysis of kidney sections were performed according to the manufacturer's protocol. For immunostaining of kidney injury molecule-1 (KIM-1) and MAC387, sections were treated with 100-fold diluted KIM-1 and MAC primary antibodies, and 200-fold diluted anti-rabbit IgG (Alexa Fluor 594) and anti-mouse IgG (Alexa Fluor 488) were each used as a secondary antibody. […] Images were analyzed quantitatively using ImageJ software. […]

[3] = system: AKI mouse model established using glycerol; test: Serum analysis (BUN, creatinine) of AKI mice; format: in vivo, ICR mice; conditions: 10 mg/kg intravenous, 24 hours, compared to AKI mice
Protocol: as §1, §2

Hemin
cytoprotective effect against hydrogen peroxide, overall ([1]; HK-2, 200 μM hydrogen peroxide): no significant difference observed between CS-H and hemin | cell viability against hydrogen peroxide ([1]; hemin concentration 1 μM, 200 μM hydrogen peroxide): no protective effect at all | protective effect against hydrogen peroxide ([1]; hemin concentration 5 and 25 μM, 200 μM hydrogen peroxide): improved protective effects | kidney ROS levels (DHE staining) ([2]; AKI mice (FIG. 6D, 6F)): not effective in reducing ROS levels | macrophage signal (MAC387 immunostaining) ([2]; AKI mice kidney): strong macrophage signals | serum BUN level [3]: did not induce significant changes | serum creatinine level [3]: did not induce significant changes
